In US20250114345A1, “COMPOUNDS AND COMPOSITIONS AS CBP/P300 DEGRADERS AND USES THEREOF” (Oncopia Therapeutics, Inc. d/b/a/ SK Life Science Labs, priority 2023, published 2025):

Biological target: T1, p300 (Homo sapiens, UniProt Q09472)
T1 construct: host or cells: A549 P300 HiBit cells
Test: P300 degradation, HiBit technology in A549 P300 HiBit cells (2 h)
Type: cell-based
Conditions: 2 hrs post treatment; for Dmax: A549, A549 P300 HiBit cells; for DC50: A549 P300 HiBit cells
Outline: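 Luminescence after lytic HiBiT detection (10 min, room temperature) gave degradation potency and Dmax. Before that, knock-in A549 cells grown overnight in F-12K/10% HI-FBS were exposed to serially diluted compound at 37 °C, 5% CO2 for the assay time stated.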

T1 sequence (Q09472 whole entry): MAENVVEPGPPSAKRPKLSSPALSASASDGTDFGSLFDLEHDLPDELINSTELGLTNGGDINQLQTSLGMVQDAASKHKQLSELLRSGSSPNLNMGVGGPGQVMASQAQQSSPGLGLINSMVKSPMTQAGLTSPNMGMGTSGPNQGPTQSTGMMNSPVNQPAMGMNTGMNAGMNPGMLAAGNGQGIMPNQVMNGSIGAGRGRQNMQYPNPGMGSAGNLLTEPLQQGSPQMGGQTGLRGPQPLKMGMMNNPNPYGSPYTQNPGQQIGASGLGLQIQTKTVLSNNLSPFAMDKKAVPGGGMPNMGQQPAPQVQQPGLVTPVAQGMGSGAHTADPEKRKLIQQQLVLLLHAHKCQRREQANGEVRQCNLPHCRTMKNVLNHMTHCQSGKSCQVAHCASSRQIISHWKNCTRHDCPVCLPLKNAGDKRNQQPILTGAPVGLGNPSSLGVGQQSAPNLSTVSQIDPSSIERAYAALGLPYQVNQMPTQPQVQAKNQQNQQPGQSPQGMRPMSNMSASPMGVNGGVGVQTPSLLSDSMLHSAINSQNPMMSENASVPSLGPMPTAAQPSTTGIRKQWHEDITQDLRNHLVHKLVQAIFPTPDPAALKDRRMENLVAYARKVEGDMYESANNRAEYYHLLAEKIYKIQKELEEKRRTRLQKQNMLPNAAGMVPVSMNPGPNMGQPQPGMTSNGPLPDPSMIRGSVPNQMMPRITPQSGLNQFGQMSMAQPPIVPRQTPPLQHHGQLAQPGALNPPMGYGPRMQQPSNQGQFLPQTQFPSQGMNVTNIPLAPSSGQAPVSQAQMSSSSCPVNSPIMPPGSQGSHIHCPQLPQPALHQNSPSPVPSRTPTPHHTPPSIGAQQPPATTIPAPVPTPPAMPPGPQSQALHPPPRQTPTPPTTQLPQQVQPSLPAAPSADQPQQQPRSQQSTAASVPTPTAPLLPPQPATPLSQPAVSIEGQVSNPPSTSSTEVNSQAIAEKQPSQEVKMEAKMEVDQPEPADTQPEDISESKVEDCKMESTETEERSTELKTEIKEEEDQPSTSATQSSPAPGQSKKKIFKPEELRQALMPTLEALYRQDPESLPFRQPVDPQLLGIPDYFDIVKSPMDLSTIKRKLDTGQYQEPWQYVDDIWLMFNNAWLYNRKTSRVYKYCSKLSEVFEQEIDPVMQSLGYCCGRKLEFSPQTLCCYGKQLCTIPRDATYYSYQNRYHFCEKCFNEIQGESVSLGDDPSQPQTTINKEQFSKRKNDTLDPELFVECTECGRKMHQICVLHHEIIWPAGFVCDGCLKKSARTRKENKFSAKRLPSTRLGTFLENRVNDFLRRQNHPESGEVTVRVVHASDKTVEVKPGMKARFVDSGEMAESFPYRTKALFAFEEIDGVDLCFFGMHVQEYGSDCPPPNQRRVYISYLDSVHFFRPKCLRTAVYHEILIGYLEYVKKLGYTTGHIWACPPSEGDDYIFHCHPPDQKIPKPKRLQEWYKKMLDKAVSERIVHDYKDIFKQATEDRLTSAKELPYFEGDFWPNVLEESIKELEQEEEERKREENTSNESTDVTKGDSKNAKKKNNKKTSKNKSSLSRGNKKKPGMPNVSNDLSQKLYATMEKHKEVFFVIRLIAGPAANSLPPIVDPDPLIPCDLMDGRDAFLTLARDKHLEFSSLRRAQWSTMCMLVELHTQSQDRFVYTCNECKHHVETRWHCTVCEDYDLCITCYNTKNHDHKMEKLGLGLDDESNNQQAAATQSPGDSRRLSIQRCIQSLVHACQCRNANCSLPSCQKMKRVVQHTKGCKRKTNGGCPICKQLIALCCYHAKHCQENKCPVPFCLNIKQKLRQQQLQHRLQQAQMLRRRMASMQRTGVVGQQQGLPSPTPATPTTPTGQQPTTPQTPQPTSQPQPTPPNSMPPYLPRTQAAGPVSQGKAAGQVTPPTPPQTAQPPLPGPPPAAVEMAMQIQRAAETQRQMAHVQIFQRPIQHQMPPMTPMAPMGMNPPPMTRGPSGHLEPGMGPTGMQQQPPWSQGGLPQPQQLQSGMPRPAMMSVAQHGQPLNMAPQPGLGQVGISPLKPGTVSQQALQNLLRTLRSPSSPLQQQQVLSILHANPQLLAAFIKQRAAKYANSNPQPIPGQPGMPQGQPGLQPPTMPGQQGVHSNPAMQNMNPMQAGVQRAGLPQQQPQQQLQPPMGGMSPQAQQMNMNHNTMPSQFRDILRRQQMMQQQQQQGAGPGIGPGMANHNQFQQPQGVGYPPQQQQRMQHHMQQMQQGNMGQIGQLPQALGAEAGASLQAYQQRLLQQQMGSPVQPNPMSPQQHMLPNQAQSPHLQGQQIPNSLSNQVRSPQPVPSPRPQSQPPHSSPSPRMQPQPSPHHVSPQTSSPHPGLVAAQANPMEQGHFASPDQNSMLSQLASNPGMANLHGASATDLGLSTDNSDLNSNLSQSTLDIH

Row | Structure (SMILES) | Dmax [%] | DC50 [nM]
1 | Cc1cc2c(N3CCCc4nc(-c5ccc(C(=O)NCC=C=Cc6ccc7occ(C8CCC(=O)NC8=O)c7c6)nc5)ncc43)cc(C3CCOCC3)cc2n(C)c1=O (stereo not shown) [Example B116, 5-(5-(1,3-dimethyl-2-oxo-7-(tetrahydro-2H-pyran-4-yl)-1,2-dihydroquinolin-5-yl)-5,6,7,8-tetrahydropyrido[3,2-d]pyrimidin-2-yl)-N-(4-(3-(2,6-dioxopiperidin-3-yl)benzofuran-5-yl)buta-2,3-dien-1-yl)picolinamide] | 40 to 59 | 10 to 99
2 | Cc1cc(N2CCCc3nc(-c4ccc(C(=O)NCC#Cc5cc6c(C7CCC(=O)NC7=O)cccc6o5)nc4)ncc32)c2cc(C)c(=O)n(C)c2n1 (stereo not shown) [Example B118, N-(3-(4-(2,6-dioxopiperidin-3-yl)benzofuran-2-yl)prop-2-yn-1-yl)-5-(5-(2,6,8-trimethyl-7-oxo-7,8-dihydro-1,8-naphthyridin-4-yl)-5,6,7,8-tetrahydropyrido[3,2-d]pyrimidin-2-yl) picolinamide] | > 80 | 1 to 9.9
3 | Cc1cc(N2CCCc3nc(-c4ccc(C(=O)NCC#Cc5cc6c(C7CCC(=O)NC7=O)nccc6o5)nc4)ncc32)c2cc(C)c(=O)n(C)c2c1 (stereo not shown) [Example B120, N-(3-(4-(2,6-dioxopiperidin-3-yl)furo[3,2-c]pyridin-2-yl)prop-2-yn-1-yl)-5-(5-(1,3,7-trimethyl-2-oxo-1,2-dihydroquinolin-5-yl)-5,6,7,8-tetrahydropyrido[3,2-d]pyrimidin-2-yl) picolinamide] | > 80 | 1 to 9.9
4 | CCc1cc2c(cc(C)c(=O)n2C)c(N2CCCc3nc(-c4ccc(C(=O)NCC#Cc5ccc6occ(C7CCC(=O)NC7=O)c6c5)nc4)ncc32)n1 (stereo not shown) [Example B121, N-(3-(3-(2,6-dioxopiperidin-3-yl)benzofuran-5-yl)prop-2-yn-1-yl)-5-(5-(7-ethyl-1,3-dimethyl-2-oxo-1,2-dihydro-1,6-naphthyridin-5-yl)-5,6,7,8-tetrahydropyrido[3,2-d]pyrimidin-2-yl)picolinamide] | 40 to 59 | 1 to 9.9
5 | CCc1cc2c(N3CCCc4nc(-c5ccc(C(=O)NCC#Cc6ccc7occ(C8CCC(=O)NC8=O)c7c6)nc5)ncc43)cc(C3CCOCC3)cc2n(C)c1=O (stereo not shown) [Example B122, N-(3-(3-(2,6-dioxopiperidin-3-yl)benzofuran-5-yl)prop-2-yn-1-yl)-5-(5-(3-ethyl-1-methyl-2-oxo-7-(tetrahydro-2H-pyran-4-yl)-1,2-dihydroquinolin-5-yl)-5,6,7,8-tetrahydropyrido [3,2-d]pyrimidin-2-yl)picolinamide] | < 20 | > 1000
6 | Cc1cc2c(N3CCCc4nc(-c5ccc(C(=O)NCC#Cc6ccc7occ(C8CCC(=O)NC8=O)c7c6)nc5)ncc43)cc(C(C)C)cc2n(C)c1=O (stereo not shown) [Example B125, N-(3-(3-(2,6-dioxopiperidin-3-yl)benzofuran-5-yl)prop-2-yn-1-yl)-5-(5-(7-isopropyl-1,3-dimethyl-2-oxo-1,2-dihydroquinolin-5-yl)-5,6,7,8-tetrahydropyrido[3,2-d]pyrimidin-2-yl)picolinamide] | > 80 | 1 to 9.9
7 | Cc1cc2c(N3CCCc4nc(-c5ccc(C(=O)NCC#Cc6cc7c(C8CCC(=O)NC8=O)cccc7o6)nc5)ncc43)cc(Cl)cc2n(C)c1=O (stereo not shown) [Example B126, 5-(5-(7-chloro-1,3-dimethyl-2-oxo-1,2-dihydroquinolin-5-yl)-5,6,7,8-tetrahydropyrido [3,2-d]pyrimidin-2-yl)-N-(3-(4-(2,6-dioxo-piperidin-3-yl)benzofuran-2-yl)prop-2-yn-1-yl)picolinamide] | > 80 | 1 to 9.9
8 | Cc1cc2c(N3CCCc4nc(-c5ccc(C(=O)NCC#Cc6ccc7occ(C8CCC(=O)NC8=O)c7c6)nc5)ncc43)nc(N(C)C)cc2n(C)c1=O (stereo not shown) [Example B128, 5-(5-(7-(dimethylamino)-1,3-dimethyl-2-oxo-1,2-dihydro-1,6-naphthyridin-5-yl)-5,6,7,8-tetrahydropyrido[3,2-d]pyrimidin-2-yl)-N-(3-(3-(2,6-dioxopiperidin-3-yl)benzofuran-5-yl)prop-2-yn-1-yl)picolinamide] | > 80 | 1 to 9.9
9 | Cc1cc2c(N3CCCc4cc(-c5ccc(C(=O)NCC#Cc6ccc7occ(C8CCC(=O)NC8=O)c7c6)nc5)c(F)cc43)cccc2n(C)c1=O (stereo not shown) [Example B129, N-(3-(3-(2,6-dioxopiperidin-3-yl)benzofuran-5-yl)prop-2-yn-1-yl)-5-(7-fluoro-1′,3′-dimethyl-2′-oxo-1′,2′,3,4-tetrahydro-2H-[1,5′-biquinolin]-6-yl)picolinamide] | > 80 | 1 to 9.9
10 | Cc1cc2c(N3CCCc4nc(-c5ccc(C(=O)NCC#Cc6ccc7occ(C8CCC(=O)NC8=O)c7c6)nc5)ncc43)nc(C(C)C)cc2n(C)c1=O (stereo not shown) [Example B130, N-(3-(3-(2,6-dioxopiperidin-3-yl)benzofuran-5-yl)prop-2-yn-1-yl)-5-(5-(7-isopropyl-1,3-dimethyl-2-oxo-1,2-dihydro-1,6-naphthyridin-5-yl)-5,6,7,8-tetrahydropyrido[3,2-d]pyrimidin-2-yl)picolinamide] | 60 to 79 | 1 to 9.9
11 | CCc1cc(N2CCCc3cc(-c4ccc(C(=O)NCC#Cc5ccc6occ(C7CCC(=O)NC7=O)c6c5)nc4)c(F)cc32)c2cc(C)c(=O)n(C)c2c1 (stereo not shown) [Example B133, N-(3-(3-(2,6-dioxopiperidin-3-yl)benzofuran-5-yl)prop-2-yn-1-yl)-5-(7′-ethyl-7-fluoro-1′,3′-dimethyl-2′-oxo-1′,2′,3,4-tetrahydro-2H-[1,5′-biquinolin]-6-yl)picolinamide] | > 80 | 1 to 9.9
12 | Cc1cc2c(N3CCCc4cc(-c5ccc(C(=O)NCC#Cc6ccc7occ(C8CCC(=O)NC8=O)c7c6)nc5)c(F)cc43)cc(C(C)C)cc2n(C)c1=O (stereo not shown) [Example B134, N-(3-(3-(2,6-dioxopiperidin-3-yl)benzofuran-5-yl)prop-2-yn-1-yl)-5-(7-fluoro-7′-isopropyl-1′,3′-dimethyl-2′-oxo-1′,2′,3,4-tetrahydro-2H-[1,5′-biquinolin]-6-yl)picolinamide] | > 80 | 10 to 99
13 | Cc1cc(-c2ncc(N(C)c3cc(C4CCOCC4)cc4c3cc(C)c(=O)n4C)nn2)cnc1C(=O)NCC#Cc1ccc2occ(C3CCC(=O)NC3=O)c2c1 (stereo not shown) [Example B135, 5-(6-((1,3-dimethyl-2-oxo-7-(tetrahydro-2H-pyran-4-yl)-1,2-dihydroquinolin-5-yl) (methyl)amino)-1,2,4-triazin-3-yl)-N-(3-(3-(2,6-dioxopiperidin-3-yl)benzofuran-5-yl)prop-2-yn-1-yl)-3-methylpicolinamide] | < 20 | > 1000
14 | Cc1cc2c(N3CCCc4nc(-c5ccc(C(=O)NCC#Cc6ccc7occ(C8CCC(=O)NC8=O)c7c6)nc5)ncc43)nc(N3CC[Si](C)(C)CC3)cc2n(C)c1=O (stereo not shown) [Example B139, 5-(5-(7-(4,4-dimethyl-1,4-azasilinan-1-yl)-1,3-dimethyl-2-oxo-1,2-dihydro-1,6-naphthyridin-5-yl)-5,6,7,8-tetrahydropyrido[3,2-d]pyrimidin-2-yl)-N-(3-(3-(2,6-dioxopiperidin-3-yl)benzofuran-5-yl)prop-2-yn-1-yl)picolinamide] | 60 to 79 | 100 to 999
